Measured values taken from publication PMC3303072 (Cell Biology and Toxicology, 2012).
Read-outs that look alike come from different tables or passages of the source.

How the values were obtained:
[1] = 100 mM stock in 100% DMSO; a 50 mM stock was prepared instead
[2] = tested on: cryopreserved human hepatocytes; conditions: for Cytotoxicity (in words): cryopreserved HH compared with HepG2 and HepaRG, xCELLigence; for Cytotoxicity class by LC50: cryopreserved HH (3 donors), xCELLigence cell index, LC50 after 48 and 72 h
[3] = tested on: primary human hepatocytes; format: cell-based; conditions: control (DMSO) vs induced, 24 h, 1,250 probes; for Number of differentially expressed probes, Down: fold change <-2; for Number of differentially expressed probes, Up: fold change >2; for Number of differentially expressed probes, Either: fold change >2 or <-2
CYP1A2 = conditions: human
HepG2 cells [4] = format: cell-based, human; conditions: control (DMSO) vs induced, 24 h; for Number of differentially expressed probes, Down: fold change <-2, 1,250 probes; for Number of differentially expressed probes, Up: fold change >2, 1,250 probes; for Number of differentially expressed probes, Either: fold change >2 or <-2, 1,250 probes
HepaRG cells [5] = format: cell-based, human; conditions: control (DMSO) vs induced, 24 h; for Number of differentially expressed probes, Down: fold change <-2, 1,250 probes; for Number of differentially expressed probes, Up: fold change >2, 1,250 probes; for Number of differentially expressed probes, Either: fold change >2 or <-2, 1,250 probes
HepG2 cells [6] = conditions: xCELLigence cell index, LC50 after 48 and 72 h
HepaRG cells [7] = conditions: xCELLigence cell index, LC50 after 48 and 72 h
in vitro [8] = conditions: human, Cytotoxicity class by LC50
in vitro [9] = conditions: human, Cytotoxicity class by LC50; remark: listed apart in the source
in vitro [10] = conditions: human, Cytotoxicity class by LC50; remark: listed apart in the source
CYP3A4 = conditions: human
[11] = read-out: Cmax (the maximum concentration of a drug in the blood after dosing); in vivo studies; cited from earlier work

CC(=O)N1CCN(c2ccc(OCC3COC(Cn4ccnc4)(c4ccc(Cl)cc4Cl)O3)cc2)CC1 (stereo not shown) [ketoconazole]
Solubility of stock solution [1]: solubility problems occurred at 100 mM | Cytotoxicity (in words) [2]: induced cytotoxicity in HH only

O=c1cc(-c2ccccc2)oc2ccc3ccccc3c12 [BNF, beta-naphthoflavone]
Number of differentially expressed probes, Down ([3]; HH1): 50 | Number of differentially expressed probes, Up ([3]; HH1): 74 | Number of differentially expressed probes, Either ([3]; HH1): 124 | Number of differentially expressed probes, Down ([3]; HH2): 81 | Number of differentially expressed probes, Up ([3]; HH2): 64 | Number of differentially expressed probes, Either ([3]; HH2): 145 | Number of differentially expressed probes, Down ([3]; HH3): 35 | Number of differentially expressed probes, Up ([3]; HH3): 51 | Number of differentially expressed probes, Either ([3]; HH3): 86 | Fold increase in CYP1A2 activity (CYP1A2): 9.1 fold | Number of differentially expressed probes, Down (HepG2 cells [4]): 61 | Number of differentially expressed probes, Up (HepG2 cells [4]): 31 | Number of differentially expressed probes, Either (HepG2 cells [4]): 92 | Number of differentially expressed probes, Down (HepaRG cells [5]): 25 | Number of differentially expressed probes, Up (HepaRG cells [5]): 106 | Number of differentially expressed probes, Either (HepaRG cells [5]): 131

CC(=O)Oc1ccccc1C(=O)O [aspirin]
Cytotoxicity class by LC50 (HepG2 cells [6]): non cytotoxic | Cytotoxicity class by LC50 [2]: non cytotoxic | Cytotoxicity class by LC50 (HepaRG cells [7]): non cytotoxic

CC/C(=C(\c1ccccc1)c1ccc(OCCN(C)C)cc1)c1ccccc1 [tamoxifen]
CC50 (in vitro [8]): 10 to 50 µM | CC50 (in vitro [9]): < 10 µM | CC50 (in vitro [10]): 10 to 50 µM

CC(C)C(=O)Nc1ccc([N+](=O)[O-])c(C(F)(F)F)c1 [flutamide]
Cytotoxicity (in words) [2]: induced cytotoxicity in HH only

CC(CCc1ccccc1)NCC(O)c1ccc(O)c(C(N)=O)c1 (stereo not shown) [labetalol]
Cytotoxicity (in words) [2]: induced cytotoxicity in HH only

CCOC(=O)C(C)(C)Oc1ccc(Cl)cc1 [clofibrate]
Cytotoxicity class by LC50 (HepG2 cells [6]): non cytotoxic | Cytotoxicity class by LC50 [2]: non cytotoxic | Cytotoxicity class by LC50 (HepaRG cells [7]): non cytotoxic

CCC1(c2ccccc2)C(=O)NC(=O)NC1=O [PB, phenobarbital]
Number of differentially expressed probes, Down ([3]; HH1): 44 | Number of differentially expressed probes, Up ([3]; HH1): 46 | Number of differentially expressed probes, Either ([3]; HH1): 90 | Number of differentially expressed probes, Down ([3]; HH2): 121 | Number of differentially expressed probes, Up ([3]; HH2): 39 | Number of differentially expressed probes, Either ([3]; HH2): 160 | Number of differentially expressed probes, Down ([3]; HH3): 29 | Number of differentially expressed probes, Up ([3]; HH3): 76 | Number of differentially expressed probes, Either ([3]; HH3): 105 | Number of differentially expressed probes, Down (HepG2 cells [4]): 60 | Number of differentially expressed probes, Up (HepG2 cells [4]): 17 | Number of differentially expressed probes, Either (HepG2 cells [4]): 77 | Effect on CYP2B6 activity (CYP2B6): did not have any effect | Number of differentially expressed probes, Down (HepaRG cells [5]): 25 | Number of differentially expressed probes, Up (HepaRG cells [5]): 35 | Number of differentially expressed probes, Either (HepaRG cells [5]): 60 | Fold increase in CYP3A4 activity (CYP3A4): 36.6 times

CCCCc1oc2ccccc2c1C(=O)c1cc(I)c(OCCN(CC)CC)c(I)c1 [amiodarone]
CC50 (in vitro [9]): < 10 µM

CO[C@H]1/C=C/O[C@@]2(C)Oc3c(C)c(O)c4c(O)c(c(/C=N/N5CCN(C)CC5)c(O)c4c3C2=O)NC(=O)/C(C)=C\C=C\[C@H](C)[C@H](O)[C@@H](C)[C@@H](O)[C@@H](C)[C@H](OC(C)=O)[C@@H]1C [RIF, rifampicin]
Number of differentially expressed probes, Down ([3]; HH1): 61 | Number of differentially expressed probes, Up ([3]; HH1): 26 | Number of differentially expressed probes, Either ([3]; HH1): 87 | Number of differentially expressed probes, Down ([3]; HH2): 49 | Number of differentially expressed probes, Up ([3]; HH2): 39 | Number of differentially expressed probes, Either ([3]; HH2): 88 | Number of differentially expressed probes, Down ([3]; HH3): 22 | Number of differentially expressed probes, Up ([3]; HH3): 59 | Number of differentially expressed probes, Either ([3]; HH3): 81 | Number of differentially expressed probes, Down (HepG2 cells [4]): 22 | Number of differentially expressed probes, Up (HepG2 cells [4]): 27 | Number of differentially expressed probes, Either (HepG2 cells [4]): 49 | Number of differentially expressed probes, Down (HepaRG cells [5]): 22 | Number of differentially expressed probes, Up (HepaRG cells [5]): 41 | Number of differentially expressed probes, Either (HepaRG cells [5]): 63

Nc1c2c(nc3ccccc13)CCCC2 [tacrine]
CC50 (in vitro [9]): 50 to 100 µM

C#C[C@]1(O)CC[C@H]2[C@@H]3CCC4=Cc5oncc5C[C@]4(C)[C@H]3CC[C@@]21C [danazol]
Cmax [11]: 160 nM
